Earlier results on one molecule are cited in publication PMC11843658 (Journal of Enzyme Inhibition and Medicinal Chemistry, 2025).

The subject of the data set is Kasumi-1 xenograft. Details: method as in PMID 32551003. Particulars: Kasumi-1 xenograft model of acute myeloid leukaemia; cited from earlier work.

As for `CC/C(=C\c1ccccc1)[C@@H]1C[C@H]1NC1CC2(C1)CN(CCO)C2` [Compound 5], the “anticancer effects in xenograft model” value was “potent anticancer effects”.
